According to publication PMC10332405 (European journal of medicinal chemistry, 2023):

What was measured:
[1] = test system: HIV-1-SLK; assay: Antiviral assay with resistant HIV-1 variant SLK; type: cell-based; conditions: read-out: Antiviral EC50, HIV-1-SLK; multi-PI resistant recombinant virus
[2] = biological target: HIV-1 protease I50V/A71V (Human immunodeficiency virus type 1 group M subtype B, UniProt P12497, A559V/I538V/Q495K); assay: biochemical
[3] = biological target: HIV-1 protease I84V (Human immunodeficiency virus type 1 group M subtype B, UniProt P12497, I572V/Q495K); assay: biochemical
[4] = test system: human T-cell lymphotropic virus type 1 (HTLV-1) protease; conditions: cited from earlier work

SMILES: CCOP(=O)(COc1ccc(C[C@H](NC(=O)O[C@H]2CO[C@H]3OCC[C@H]32)[C@H](O)CN(CC(CC)CC)S(=O)(=O)c2ccc(OC)cc2)cc1)OCC [PU7, (3R,3aS,6aR)-Hexahydrofuro[2,3-b]furan-3-yl ((2S,3R)-1-(4-((diethoxyphosphoryl)methoxy)phenyl)-4-((N-(2-ethylbutyl)-4-methoxyphenyl)sulfonamido)-3-hydroxybutan-2-yl)carbamate]
- EC50 [1]: < 10 nM

SMILES: CCOP(=O)(COc1ccc(C[C@H](NC(=O)O[C@H]2CO[C@H]3OCC[C@H]32)[C@H](O)CN(CC(CC)CC)S(=O)(=O)c2ccc3c(c2)OCO3)cc1)OCC [PU9, (3R,3aS,6aR)-Hexahydrofuro[2,3-b]furan-3-yl ((2S,3R)-1-(4-((diethoxyphosphoryl)methoxy)phenyl)-4-(N-(2-ethylbutyl)benzo[d][1,3]dioxole-5-sulfonamido)-3-hydroxybutan-2-yl)carbamate]
- EC50 [1]: < 10 nM

SMILES: CCOP(=O)(COc1ccc(C[C@H](NC(=O)O[C@H]2CO[C@H]3OCC[C@H]32)[C@H](O)CN(CC(C)C)S(=O)(=O)c2ccc(OC)cc2)cc1)OCC [GS-8374]
- Ki [2]: < 0.005 nM
- Ki [3]: < 0.005 nM

SMILES: CCOP(=O)(COc1ccc(C[C@H](NC(=O)O[C@H]2CO[C@H]3OCC[C@H]32)[C@H](O)CN(CC(CC)CC)S(=O)(=O)c2ccc(N)cc2)cc1)OCC [PU6, (3R,3aS,6aR)-Hexahydrofuro[2,3-b]furan-3-yl ((2S,3R)-4-((4-amino-N-(2-ethylbutyl)phenyl)sulfonamido)-1-(4-((diethoxyphosphoryl)methoxy)phenyl)-3-hydroxybutan-2-yl)carbamate]
- Inhibition of HTLV-1 protease [4]: potent inhibitor
